Assay results: patent publication US6632829B2, “Sulfonamides and derivatives thereof that modulate the activity of endothelin” (Texas Biotechnology Corp., priority 1996, dated 2003)

Key:
[1] = biological target: T1, human ETB receptor (Homo sapiens, UniProt P24530); assay: Endothelin binding inhibition, Binding Test #2: competition with 125I-ET-1 for ETB receptors on transfected COS7 cell membranes; conditions: for inhibition at 100 µM: read-out: ETB % inhibition @ 100 μM, @ 100 μM, incubation at 24° C.
T1 construct: expressed in transfected cells; host or cells: COS7 cells
T1 sequence (P24530 27-442): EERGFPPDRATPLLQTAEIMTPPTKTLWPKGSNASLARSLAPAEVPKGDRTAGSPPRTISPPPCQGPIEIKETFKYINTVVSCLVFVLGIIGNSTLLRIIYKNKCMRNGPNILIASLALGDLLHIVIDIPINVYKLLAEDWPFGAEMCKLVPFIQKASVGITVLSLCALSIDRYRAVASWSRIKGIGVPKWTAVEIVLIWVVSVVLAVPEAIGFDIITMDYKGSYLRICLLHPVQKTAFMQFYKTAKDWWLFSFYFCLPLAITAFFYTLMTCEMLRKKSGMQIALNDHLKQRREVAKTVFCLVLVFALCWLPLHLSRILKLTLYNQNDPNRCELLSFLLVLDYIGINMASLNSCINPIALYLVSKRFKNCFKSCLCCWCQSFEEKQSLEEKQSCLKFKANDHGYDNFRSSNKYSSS
How it was run: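 Membranes from COS7 cells transfected with human ETB receptor, prepared in HEPES pH 7.4 with aprotinin, MnCl2/DNase treatment at 37° C for 30 min. Test compounds compete with 125I-labeled ET-1 for receptor binding; membrane used at 1 μg/50 μL binding buffer.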

[2] = biological target: T2, human ETA receptors (Homo sapiens, UniProt P25101); assay: Endothelin binding inhibition, Binding Test #1: competition with 125I-ET-1 for ETA receptors on TE 671 cell membranes
T2 construct: endogenous in cells; host or cells: TE 671 cells (ATCC HTB 139), membrane preparation
T2 sequence (P25101 21-427): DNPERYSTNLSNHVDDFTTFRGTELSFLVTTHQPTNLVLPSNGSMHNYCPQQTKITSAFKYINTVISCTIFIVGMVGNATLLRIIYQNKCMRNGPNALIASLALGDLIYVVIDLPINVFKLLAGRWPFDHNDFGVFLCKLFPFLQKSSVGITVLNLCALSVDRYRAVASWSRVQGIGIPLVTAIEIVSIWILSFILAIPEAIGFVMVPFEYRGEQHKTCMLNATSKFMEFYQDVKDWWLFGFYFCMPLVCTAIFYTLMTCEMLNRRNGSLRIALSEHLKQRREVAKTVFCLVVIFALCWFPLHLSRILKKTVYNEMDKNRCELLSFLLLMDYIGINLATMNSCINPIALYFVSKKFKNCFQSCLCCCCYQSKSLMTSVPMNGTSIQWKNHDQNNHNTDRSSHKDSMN

[3] = incubation at 24° C. (values marked †)
[4] = incubation at 4° C. (values without †)

| Compound | IC50 [1, 3] [µM] | IC50 [2, 3] [µM] | IC50 [1, 4] [µM] | IC50 [2, 4] [µM] | inhibition at 100 µM [1] [%] |
| --- | --- | --- | --- | --- | --- |
| CC(=O)OCCc1cc2c(cc1NC(=O)c1sccc1S(=O)(=O)Nc1onc(C)c1Cl)OCO2 [N-(4-chloro-3-methyl-5-isoxazolyl)-2-[3,4-(methylenedioxy)-6-(2-acetoxyethyl)phenylaminocarbonyl]thiophene-3-sulfonamide] | 25.7 | 0.0045 | – | – | – |
| Cc1noc(NS(=O)(=O)c2ccsc2N)c1Cl [N-(4-chloro-3-methyl-5-isoxazolyl)-2-aminothiophene-3-sulfonamide] | 6.2 | 14 | – | – | – |
| Cc1noc(NS(=O)(=O)c2ccsc2C(=O)Oc2ccc3c(c2)OCO3)c1C [N-(3,4-dimethyl-5-isoxazolyl)-2-{(3,4-(methylenedioxy)phenoxy]carbonyl}thiophene-3-sulfonamide] | – | 3.61 | – | – | 30 |
| Cc1noc(NS(=O)(=O)c2ccsc2C(=O)Oc2ccccc2)c1Br [N-(4-bromo-3-methyl-5-isoxazolyl)-2-(phenoxycarbonyl)thiophene-3-sulfonamide] | – | 2.71 | – | – | 20 |
| Cc1ccc(-c2ccc(S(=O)(=O)Nc3onc(C)c3Br)s2)s1 [N-(4-bromo-3-methyl-5-isoxazolyl)-5-(5-methyl-2-thienyl)thiophene-2-sulfonamide] | 0.21 | 17 | – | – | – |
| N-2-[3,4-(methylenedioxy)phenylacetyl]thiophene-3-sulfonamide | 32.5 | 1.8 | – | – | – |
| Cc1noc(NS(=O)(=O)c2ccsc2C(=O)Oc2ccccc2)c1C [N-(3,4-dimethyl-5-isoxazolyl)-2-(phenoxycarbonyl)thiophene-3-sulfonamide] | – | 2.85 | – | – | 31 |
| Cc1ccc(OC(=O)c2sccc2S(=O)(=O)Nc2onc(C)c2Br)c(C)c1 [N-(4-bromo-3-methyl-5-isoxazolyl)-2-[(2,4-dimethylphenoxy)carbonyl]thiophene-3-sulfonamide] | 43.2 | 0.291 | – | – | – |
| Cc1noc(NS(=O)(=O)c2ccsc2C(=O)OCc2ccc3c(c2)OCO3)c1Cl [N-(4-chloro-3-methyl-5-isoxazolyl)-2-[3,4-(methylenedioxy)benzyloxycarbonyl]thiophene-3-sulfonamide] | 12 | 0.42 | – | – | – |
| N-(4-chloro-3-methyl-5-isoxazolyl)-2-[β-acetoxy-2-methyl-4,5-(methylenedioxy)styryl]thiophene-3-sulfonamide | 3.74 | – | – | 0.00544 | – |
| CCCc1ccc(-c2ccsc2S(=O)(=O)Nc2onc(C)c2Br)cc1 [N-(4-bromo-3-methyl-5-isoxazolyl)-3-(4-propylphenyl)thiophene-2-sulfonamide] | 8.48 | – | – | 0.0873 | – |
| Cc1noc(NS(=O)(=O)c2sccc2-c2ccc(C(C)C)cc2)c1Br [N-(4-bromo-3-methyl-5-isoxazolyl)-3-(4-iso-propylphenyl)thiophene-2-sulfonamide] | 28.3 | – | – | 0.218 | – |

Continued, values first:

| IC50 [1, 3] [µM] | IC50 [2, 3] [µM] | IC50 [1, 4] [µM] | IC50 [2, 4] [µM] | inhibition at 100 µM [1] [%] | Compound |
| --- | --- | --- | --- | --- | --- |
| 1.3 | 0.041 | 0.477 | 0.014 | – | Cc1noc(NS(=O)(=O)c2c(Cc3ccc(N(C)C)cc3)sc3ccccc23)c1Cl [N-(4-chloro-3-methyl-5-isoxazolyl)-2-(4-dimethylaminobenzyl)benzo[b]thiophene-3-sulfonamide] |
| 2.94 ± 1.32 | 0.021 ± 0.017 | – | – | – | COc1ccc(Cc2sc3ccccc3c2S(=O)(=O)Nc2onc(C)c2Br)cc1OC [N-(4-bromo-3-methyl-5-isoxazolyl)-2-(3,4-dimethoxybenzyl)benzo[b]thiophene-3-sulfonamide] |
| 29.2 | 0.0027 | – | – | – | N-(3,4-dimethyl-5-isoxazolyl)-2-(4-tolylacetylphenyl)thiophene-3-sulfonamide |
| ~18 | ~0.01 | – | – | – | Cc1noc(NS(=O)(=O)c2ccsc2C(=O)Nc2cc3c(cc2OCCO)OCO3)c1Cl [N-(4-chloro-3-methyl-5-isoxazolyl)-2-[3,4-(methylenedioxy)-6-(2-hydroxyethoxy)phenylaminocarbonyl]thiophene-3-sulfonamide] |
| 25 | 0.0038 | – | – | – | Cc1noc(NS(=O)(=O)c2ccsc2C(=O)Nc2c(CC#N)cc3c(c2CC#N)OCO3)c1Cl [N-(4-chloro-3-methyl-5-isoxazolyl)-2-[2-cyanomethyl-4,5-(methylenedioxy)-6-cyanomethyl]phenylaminocarbonylthiophene-3-sulfonamide] |
| 17.4 | 0.0027 | – | – | – | Cc1ccc(CC(=O)c2sccc2S(=O)(=O)Nc2onc(C)c2C)c(C)c1 [N-(3,4-dimethyl-5-isoxazolyl)-2-(2,4-dimethylphenylacetyl)thiophene-3-sulfonamide] |
| 12.2 | 0.0039 | – | – | – | COc1cc(C#N)c(NC(=O)c2sccc2S(=O)(=O)Nc2onc(C)c2Cl)cc1OC [N-(4-chloro-3-methyl-5-isoxazolyl)-2-[{2-cyano-4,5-dimethoxyphenyl)aminocarbonyl]thiophene-3-sulfonamide] |
| 1.4 | 0.14 | – | – | – | Cc1noc(NS(=O)(=O)c2ccsc2C/C=C/c2ccc3c(c2)OCO3)c1Br [N-(4-bromo-3-methyl-5-isoxazolyl)-2-[trans-(3,4-methylenedioxy)cinnamyl]thiophene-3-sulfonamide] |
| 9.2 | 0.0073 | – | – | – | Cc1noc(NS(=O)(=O)c2ccsc2C(=O)Nc2ccc3c(c2)OCO3)c1Cl [N-(4-chloro-3-methyl-5-isoxazolyl)-2-[3,4-(methylenedioxy)]phenylaminocarbonyl-3-thiophenesulfonamide] |
| 2.76 | 0.0823 | – | – | – | Cc1noc(NS(=O)(=O)c2sccc2-c2ccc(CC(C)C)cc2)c1Br [N-(4-bromo-3-methyl-5-isoxazolyl)-3-(4-iso-butylphenyl)thiophene-2-sulfonamide] |
| 14 | 0.0105 | 2.93 | 0.00116 | – | Cc1ccc(NC(=O)c2sccc2S(=O)(=O)Nc2onc(C)c2Cl)cc1 [N-(4-chloro-3-methyl-5-isoxazolyl)-2-[(4-tolyl)aminocarbonyl]thiophene-3-sulfonamide] |
| 5.5 | 0.0091 | – | – | – | Cc1noc(NS(=O)(=O)c2ccsc2C(=O)Cc2ccc3c(c2)OCO3)c1Br [N-(4-bromo-3-methyl-5-isoxazolyl)-2-[(3,4-methylenedioxy)phenylacetyl]thiophene-3-sulfonamide] |
| 22.4 | 0.0119 | – | – | – | Cc1cc(C)c(C(=O)O)c(C)c1NC(=O)c1sccc1S(=O)(=O)Nc1onc(C)c1Cl [N-(4-chloro-3-methyl-5-isoxazolyl)-2-(3-carboxyl-2,4,6-trimethylphenylaminocarbonyl)thiophene-3-sulfonamide] |
| 33.8 | 0.00111 | – | – | – | Cc1cc(C)c(NC(=O)c2sccc2S(=O)(=O)Nc2onc(C)c2C)c(C)c1CO [N-(3,4-dimethyl-5-isoxazolyl)-2-(3-hydroxymethyl-2,4,6-trimethylphenylaminocarbonyl)thiophene-3-sulfonamide] |
| 0.939 ± 0.262 | 0.0074 ± 0.0011 | 0.324 ± 0.78 | 0.0015 ± 0.0014 | – | Cc1noc(NS(=O)(=O)c2c(Cc3ccc4c(c3)OCO4)sc3ccccc23)c1Br [N-(4-bromo-3-methyl-5-isoxazolyl)-2-[3,4-(methylenedioxy)benzyl]benzo[b]thiophene-3-sulfonamide] |
| 3.08 | 0.00088 | – | – | – | Cc1cc(C)c(NC(=O)c2sccc2S(=O)(=O)Nc2noc(C)c2Cl)c(C)c1CO [N-(4-chloro-5-methyl-3-isoxazolyl)-2-(3-hydroxymethyl-2,4,6-trimethylphenylaminocarbonyl)thiophene-3-sulfonamide] |
